Where a name gives a salt, the structure may show the parent alone.
What was measured:
[1] = target: T1, α4β1 integrin (Jurkat T-cell adhesion to IL-1 stimulated endothelial cell monolayers) (Homo sapiens, UniProt P05556+P13612); assay: Jurkat-endothelial cell adhesion assay (Jurkat EC); type: cell-based; details: Jurkat cells on IL-1 stimulated human umbilical vein endothelial cells; read-out: JK/EC (Jurkat EC Assay IC50 value range)
T1 construct: a T-cell line, Jurkat, known to express the α4β1 integrin; host or cells: Jurkat T-cell line
T1 sequence (P13612 34-1032): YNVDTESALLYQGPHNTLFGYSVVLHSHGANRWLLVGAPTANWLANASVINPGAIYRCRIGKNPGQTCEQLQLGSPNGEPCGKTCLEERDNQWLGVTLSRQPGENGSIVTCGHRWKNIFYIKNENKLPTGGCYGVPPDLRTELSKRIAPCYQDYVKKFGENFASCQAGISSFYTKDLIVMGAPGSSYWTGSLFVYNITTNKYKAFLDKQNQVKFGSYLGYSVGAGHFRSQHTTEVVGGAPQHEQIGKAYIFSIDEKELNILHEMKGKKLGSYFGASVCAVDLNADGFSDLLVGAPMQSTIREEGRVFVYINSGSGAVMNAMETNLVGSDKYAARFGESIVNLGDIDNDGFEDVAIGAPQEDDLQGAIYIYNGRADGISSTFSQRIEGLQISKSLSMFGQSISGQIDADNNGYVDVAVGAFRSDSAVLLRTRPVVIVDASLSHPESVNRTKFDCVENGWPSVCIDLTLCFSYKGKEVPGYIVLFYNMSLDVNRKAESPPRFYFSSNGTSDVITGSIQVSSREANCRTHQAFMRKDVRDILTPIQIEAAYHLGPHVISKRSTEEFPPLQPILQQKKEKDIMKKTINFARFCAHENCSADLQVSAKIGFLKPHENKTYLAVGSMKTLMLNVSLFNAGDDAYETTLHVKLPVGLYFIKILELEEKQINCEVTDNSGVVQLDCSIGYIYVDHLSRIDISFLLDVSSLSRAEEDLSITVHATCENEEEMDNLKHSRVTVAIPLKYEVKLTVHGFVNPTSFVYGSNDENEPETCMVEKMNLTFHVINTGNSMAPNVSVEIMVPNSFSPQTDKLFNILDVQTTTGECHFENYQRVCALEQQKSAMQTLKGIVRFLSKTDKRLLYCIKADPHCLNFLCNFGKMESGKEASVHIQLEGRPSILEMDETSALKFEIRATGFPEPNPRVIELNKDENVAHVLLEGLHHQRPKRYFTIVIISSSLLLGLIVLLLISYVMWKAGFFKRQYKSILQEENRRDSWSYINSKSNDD
T1 sequence (P05556 21-798): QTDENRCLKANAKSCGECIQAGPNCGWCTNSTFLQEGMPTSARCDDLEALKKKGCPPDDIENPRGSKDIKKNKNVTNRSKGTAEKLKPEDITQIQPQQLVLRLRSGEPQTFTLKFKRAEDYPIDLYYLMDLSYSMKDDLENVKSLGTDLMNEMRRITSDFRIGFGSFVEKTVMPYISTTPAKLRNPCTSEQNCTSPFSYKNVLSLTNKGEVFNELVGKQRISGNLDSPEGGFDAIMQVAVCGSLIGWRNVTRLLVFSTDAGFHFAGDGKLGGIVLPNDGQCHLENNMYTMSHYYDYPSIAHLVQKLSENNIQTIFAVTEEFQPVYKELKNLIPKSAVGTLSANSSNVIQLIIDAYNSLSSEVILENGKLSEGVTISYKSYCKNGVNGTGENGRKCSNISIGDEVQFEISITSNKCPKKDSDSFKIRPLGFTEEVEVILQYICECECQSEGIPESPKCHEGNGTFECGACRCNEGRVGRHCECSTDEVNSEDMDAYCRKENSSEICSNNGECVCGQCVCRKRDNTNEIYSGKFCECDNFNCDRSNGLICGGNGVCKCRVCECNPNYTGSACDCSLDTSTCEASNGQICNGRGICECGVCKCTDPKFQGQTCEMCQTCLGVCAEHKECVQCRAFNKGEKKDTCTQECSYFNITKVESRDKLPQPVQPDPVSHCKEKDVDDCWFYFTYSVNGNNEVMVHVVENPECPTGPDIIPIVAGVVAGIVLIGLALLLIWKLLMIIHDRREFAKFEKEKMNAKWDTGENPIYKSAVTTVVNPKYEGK
Summary of the method: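 BCECF-AM-labelled Jurkat cells were mixed with compound, generally 100, 20, 5 and 1.25 μM, and added to HUVEC monolayers (passage ≤6) pre-stimulated 4 hr at 37° C with 0.1 ng/ml IL-1. After 5 min on ice and 20 min at 37° C, washed wells were read by fluorescence as % adhesion relative to no compound.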

[2] = target: T2, α4β1 integrin (Jurkat cell adhesion to immobilized CS-1 derived peptide CLHPGEILDVPST) (Homo sapiens, UniProt P05556+P13612); assay: Jurkat-CS-1 assay; type: cell-based; details: Jurkat cells on CS-1 peptide coated plates; read-out: JK/CS-1 (Jurkat CS-1 Assay IC50 value range)
T2 construct: 100 μl of Jurkat cells (2.5×10^6 cells/ml) in DMEM plus BSA; host or cells: Jurkat T-cell line
T2 sequence (P13612 34-1032): as the sequence (P13612 34-1032) above
T2 sequence (P05556 21-798): as the sequence (P05556 21-798) above
Summary of the method: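 CS-1 peptide was SPDP-crosslinked onto HSA-coated plates and blocked with BSA. Jurkat cells (2.5×10^6 cells/ml) in DMEM/BSA were mixed with compound, generally at 100, 20, 5 and 1.25 μM, and allowed to adhere for 1 hr at 37° C. Bound cells were fixed, stained with toluidine blue and quantified by OD590.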

SMILES | IC50 [1] [nM] | IC50 [2] [nM]
C[C@H](c1ccccc1)N1[C@H](C(=O)O)C[C@H]1C(=O)N[C@@H](Cc1ccc(NC(=O)c2c(Cl)cccc2Cl)cc1)C(=O)O [Example 137, [2S-[1(S*),2α,4β(R*)]]-4-[[[1-Carboxy-2-[4-[(2,6-dichlorobenzoyl)amino]phenyl]ethyl]-amino]carbonyl]-1-(1-phenylethyl)-2-azetidinecarboxylic Acid] | 250 to 1000 | 50 to 750
CCOC(=O)N1[C@@H](C(=O)O)C[C@@H]1C(=O)N[C@@H](Cc1ccc(NC(=O)c2c(Cl)cccc2Cl)cc1)C(=O)O [Example 141, [2R-(2α,4β(S*)]-4-[[[1-Carboxy-2-[4-[(2,6-dichlorobenzoyl)amino]phenyl]ethyl]-amino]-carbonyl]-1,2-azetidinedicarboxylic Acid 1-Ethyl Ester] | ≥ 1000 | 50 to 750
CC(C)(C)OC(=O)N1CC[C@H]1C(=O)N[C@@H](Cc1ccc(NC(=O)c2c(Cl)cccc2Cl)cc1)C(=O)O [Example 143, [2S-(R*,R*)]-2-[[[1-Carboxy-2-[4-[(2,6-dichlorobenzoyl)amino]phenyl]ethyl]amino]-carbonyl]-1-azetidinecarboxylic Acid 1-(1,1-Dimethylethyl)ester] | ≥ 1000 | 50 to 750
O=C(Nc1ccc(C[C@H](NC(=O)[C@@H]2CCN2)C(=O)O)cc1)c1c(Cl)cccc1Cl [Example 144, N-[[(2S)-2-Azetidinyl]carbonyl]-4-[(2,6-dichlorobenzoyl)amino]-L-phenylalanine Trifluoroacetic acid Salt] | ≥ 1000 | 50 to 750
CC(C)(C)OC(=O)N1CC(C(=O)N[C@@H](Cc2ccc(NC(=O)c3c(Cl)cccc3Cl)cc2)C(=O)O)C1 [Example 146] | ≥ 1000 | ≥ 750
O=C(Nc1ccc(C[C@H](NC(=O)C2CNC2)C(=O)O)cc1)c1c(Cl)cccc1Cl [Example 147, N-[[3-Azetidinyl]carbonyl]-4-[(2,6-dichlorobenzoyl)amino]-L-phenylalanine, Trifluoroacetic Acid Salt] | ≥ 1000 | ≥ 750
CCOC(=O)N1CSC[C@@H]1C(=O)N[C@@H](Cc1ccc(NC(=O)c2c(Cl)cccc2Cl)cc1)C(=O)OCc1ccncc1 [Example 154, [S-(R*,R*) 4-[[[1-[4-[(2,6-Dichlorobenzoyl)amino]phenyl]methyl]-2-[(4-pyridinyl)methoxy]-2-oxoethyl]amino]carbonyl]-3-thiazolidinecarboxylic Acid 3-Ethyl Ester] | 250 to 1000 | ≤ 50
O=C(O)CCC(=O)N1CCCCC1C(=O)N[C@@H](Cc1ccc(NC(=O)c2c(Cl)cccc2Cl)cc1)C(=O)O (stereo partly drawn) [Example 167] | 250 to 1000 | 50 to 750
CN1C(=O)CC(C(=O)N[C@@H](Cc2ccc(NC(=O)c3c(Cl)cccc3Cl)cc2)C(=O)O)C1c1ccc2c(c1)OCO2 (stereo partly drawn) [Example 171, N-[[2-(1,3-Benzodioxol-5-yl)-1-methyl-5-oxo-3-pyrrolidinyl]carbonyl]-4-[(2,6-dichlorobenzoyl)amino]-L-phenylalanine] | ≥ 1000 | 50 to 750
O=C(O)c1cncc(C(=O)N2CCCC[C@H]2C(=O)N[C@@H](Cc2ccc(NC(=O)c3c(Cl)cccc3Cl)cc2)C(=O)O)c1 [Example 172, 5-[[(2S)-2-[[[(1S)-1-Carboxy-2-[4-[(2,6-dichlorobenzoyl)amino]phenyl]ethyl]amino]carbonyl]-1-piperidinyl]carbonyl]-3-pyridinecarboxylic Acid] | ≤ 250 | ≤ 50
COCCC(=O)N1CCCC(C(=O)N[C@@H](Cc2ccc(NC(=O)c3c(Cl)cccc3Cl)cc2)C(=O)O)C1 (stereo partly drawn) [Example 173, 4-[(2,6-Dichlorobenzoyl)amino]-N-[[1-(3-methoxy-1-oxopropyl)-3-piperidinyl]carbonyl]-L-phenylalanine] | ≤ 250 | 50 to 750
O=C(O)/C=C/C(=O)N1CCCC[C@H]1C(=O)N[C@@H](Cc1ccc(NC(=O)c2c(Cl)cccc2Cl)cc1)C(=O)O [Example 176] | ≥ 1000 | 50 to 750
COCCC(=O)N1CCCC[C@H]1C(=O)N[C@@H](Cc1ccc(NC(=O)c2c(Cl)cccc2Cl)cc1)C(=O)O [Example 177] | ≥ 1000 | ≤ 50
O=C(Nc1ccc(C[C@H](NC(=O)[C@@H]2CCCCN2C(=O)C2CCCC(C(=O)O)C2)C(=O)O)cc1)c1c(Cl)cccc1Cl (stereo partly drawn) [Example 178] | ≥ 1000 | ≤ 50
O=C(O)c1ccccc1C(=O)N1CCCC[C@H]1C(=O)N[C@@H](Cc1ccc(NC(=O)c2c(Cl)cccc2Cl)cc1)C(=O)O [Example 181] | ≥ 1000 | 50 to 750
O=C(O)c1cccc(C(=O)N2CCCC[C@H]2C(=O)N[C@@H](Cc2ccc(NC(=O)c3c(Cl)cccc3Cl)cc2)C(=O)O)c1 [Example 182] | 250 to 1000 | 50 to 750
O=C(Nc1ccc(C[C@H](NC(=O)[C@@H]2CCCCN2C(=O)c2cccnc2)C(=O)O)cc1)c1c(Cl)cccc1Cl [Example 185] | ≤ 250 | ≤ 50

Continued, values first:

IC50 [1] [nM] | IC50 [2] [nM] | SMILES
≤ 250 | ≤ 50 | O=C(O)c1cccc(C(=O)N2CCCC[C@H]2C(=O)N[C@@H](Cc2ccc(NC(=O)c3c(Cl)cccc3Cl)cc2)C(=O)O)n1 [Example 186]
≥ 1000 | 50 to 750 | O=C(O)c1ccc(C(=O)N2CCCC[C@H]2C(=O)N[C@@H](Cc2ccc(NC(=O)c3c(Cl)cccc3Cl)cc2)C(=O)O)nc1 [Example 187]
≥ 1000 | 50 to 750 | O=C(Nc1ccc(C[C@H](NC(=O)[C@@H]2CCCCN2C(=O)c2cc(O)c3ccccc3n2)C(=O)O)cc1)c1c(Cl)cccc1Cl [Example 188]
≥ 1000 | 50 to 750 | O=C(O)c1cc(C(=O)N2CCCC[C@H]2C(=O)N[C@@H](Cc2ccc(NC(=O)c3c(Cl)cccc3Cl)cc2)C(=O)O)n[nH]1 [Example 189]
250 to 1000 | 50 to 750 | O=C(Nc1ccc(C[C@H](NC(=O)[C@@H]2CCCCN2C(=O)C2NC(C(=O)O)CS2)C(=O)O)cc1)c1c(Cl)cccc1Cl (stereo partly drawn) [Example 190]
≥ 1000 | 50 to 750 | O=C(Nc1ccc(C[C@H](NC(=O)[C@@H]2CCCCN2C(=O)c2ccc([N+](=O)[O-])o2)C(=O)O)cc1)c1c(Cl)cccc1Cl [Example 191]
≤ 250 | ≤ 50 | O=C(Nc1ccc(C[C@H](NC(=O)[C@@H]2CCCCN2C(=O)C2CCCO2)C(=O)O)cc1)c1c(Cl)cccc1Cl (stereo partly drawn) [Example 192]
≤ 250 | 50 to 750 | O=C(Nc1ccc(C[C@H](NC(=O)[C@@H]2CCCCN2C(=O)C2CCOC2)C(=O)O)cc1)c1c(Cl)cccc1Cl (stereo partly drawn) [Example 193]
≥ 1000 | 50 to 750 | O=C(O)CC1(CC(=O)N2CCCC(C(=O)N[C@@H](Cc3ccc(NC(=O)c4c(Cl)cccc4Cl)cc3)C(=O)O)C2)CCCC1 (stereo partly drawn) [Example 195]
≥ 1000 | 50 to 750 | CC(C)(CC(=O)O)CC(=O)N1CCCC(C(=O)N[C@@H](Cc2ccc(NC(=O)c3c(Cl)cccc3Cl)cc2)C(=O)O)C1 (stereo partly drawn) [Example 196]
≥ 1000 | ≥ 750 | O=C(O)/C=C\C(=O)N1CCCC(C(=O)N[C@@H](Cc2ccc(NC(=O)c3c(Cl)cccc3Cl)cc2)C(=O)O)C1 (stereo partly drawn) [Example 197]
≥ 1000 | 50 to 750 | O=C(Nc1ccc(C[C@H](NC(=O)C2CCCN(C(=O)C3CCCC(C(=O)O)C3)C2)C(=O)O)cc1)c1c(Cl)cccc1Cl (stereo partly drawn) [Example 200]
≥ 1000 | 50 to 750 | CC(=O)CCC(=O)N1CCCC(C(=O)N[C@@H](Cc2ccc(NC(=O)c3c(Cl)cccc3Cl)cc2)C(=O)O)C1 (stereo partly drawn) [Example 201]

From patent US6685617B1, “Inhibitors of α4β1 mediated cell adhesion” (Pharmacia & Upjohn Company, priority 1998, dated 2004)
